# In article PMC7118210 (Frontiers in Pharmacology, 2020):
# Legend:
# [1] = Metabolites in rat liver microsomes (systems I-rat, II-rat); type: in vitro ADME, Sprague-Dawley rat
# Procedure: Then, NADPH-B (10 μl) was added and incubated for 2 h. […] Then, UDPGA (50 μl) was added and incubated for 2 h. […] Then, UDPGA (50 μl) was added and incubated for 2 h. In addition, the naringenin solution (1 mM, 10 μl) was evaluated in rat systems I, II, and III as above.
# (§1) The incubated solution (500 μl) of systems I-rat, II-rat, III-rat, I-human, and II-human were extracted with ethyl acetate (500 μl) for at least 3 min by vortexing and centrifuged for 10 min at 13,000 rpm and 4°C. The extraction process described above was performed twice and all supernatants were transferred into centrifuge tubes, dried with N2, and dissolved with methanol-water (1:1, v/v). All samples were injected into a UPLC/Q-TOF-MS system consisting of a Waters Acquity ultra performance liquid chromatography (UPLC) coupled with a Micromass micro™ quadrupole time-of-flight mass spectrometry (Q-TOF-MS) system (Waters Corp., Milford, MA, USA), equipped with an electrospray ionization source, and controlled by the MassLynx (v. 4.1) software. Separation was performed on a Waters Acquity UPLC BEH C18 column (50 mm × 2.1 mm, 1.7 μm) at 40°C. The mobile phase consisted of 0.1% formic acid (v/v) in water (A) and methanol (B) using a linear gradient of 95% to 60% A (0–25 min), 60% to 40% A (25–35 min), 40% to 10% A (35–40 min), 10% A (40–43 min), 10% to 95% A (43–44 min), and 95% A (44–45 min). The injection volume was 5 μl with flow rate of 0.2 ml min^-1. The Q-TOF-MS worked in a full scan mode (100–1,200 m/z), selection ion mode, and product ion mode, in negative ion mode, respectively. The conditions were as follows: capillary voltage 3,000 V, sample cone voltage 30 V, extraction cone voltage 2.0 V, source temperature 100°C, desolvation temperature 350°C, cone gas (N2) flow rate of 40 L/h, desolvation gas (N2) flow rate of 700 L/h, low collision energy 6.0 eV, and high collision energy 20–80 eV. Compounds were detected with accurate mass using leucine enkephalin for mass correction at 554.2615 (m/z) in negative ionization mode.
# [2] = Metabolites in human liver microsomes (systems I-human, II-human); type: in vitro ADME
# Procedure: Then, NADPH-B (10 μl) was added and the mixed solution incubated for 2 h. […] Next, UDPGA (50 μl) was added and the mixed solution incubated for 2 h. In addition, the naringenin solution (1 mM, 10 μl) was evaluated in human systems I and II as above.
# as §1
"found in rat liver microsomes, incubation of naringenin (S) [1]","found in human liver microsomes, incubation of naringenin (S) [2]",SMILES
+,,"COc1ccc([C@@H]2CC(=O)c3c(O)cc(O)cc3O2)cc1O [M8, Hesperetin]"
+,+,"O=C1C[C@@H](c2ccc(O)c(O)c2)Oc2cc(O)cc(O)c21 [M7, Eriodictyol]"
+,+,"O=c1cc(-c2ccc(O)cc2)oc2cc(O)cc(O)c12 [M6, Apigenin]"
